Assay results as given in US20250099427A1, “Drug and Method of Treating or Preventing Renal Disease Using Drug” (Showa University, priority 2018, published 2025).

Assays:
[1] = system: Acute Renal Failure Animal Model; assay: Acute renal failure animal model, pathological tissue specimen (HE staining) lesion scores; format: in vivo, mouse; conditions: 10 mg/kg
Method: 24 hours after the ischemia and reperfusion processes, urine was collected for 24 hours using a metabolic cage, measurement of body weight was conducted, and blood was collected. Thereafter, nephrectomy was conducted, and formalin-fixed kidney was permeated with paraffin using an automatic embedding device to produce a paraffin block. The paraffin block was sliced into 3 μm sections with a microtome, and placed on a slide glass. Then, the sections were stretched with a paraffin stretcher at 52° C., and sufficiently dried overnight in a paraffin melter at 37° C. After deparaffinization and washing with water, the sections were stained with a Mayer's hematoxylin staining solution for 1 minute and washed with running water for 15 minutes. Thereafter, the sections were stained with an eosin staining solution for 45 seconds, and dehydrated with 80% to 100% ethanol, followed by clearing with xylene and sealing with marinol. Each specimen was examined microscopically at a magnification of 50 using an optical microscope. With respect to tubular dilatation, tubular necrosis, and tubular casts in the cortex, outer zone of outer medulla, and inner zone of outer medulla, the percentage of lesions in each site was evaluated according to the following criteria.
In Table 12, the experimental results are expressed in mean±standard error in eight mice in each group. For comparison among multiple groups, firstly, one-way analysis of variance (ANOVA) was conducted, and then a Bonferroni test was conducted, if significant difference was recognized. Significant difference was recognized with a significance level of less than 5% (P<0.05).

[2] = system: Acute Renal Disease (Cisplatin Nephropathy) Animal Model; assay: Cisplatin nephropathy model, histopathological study (HE staining); format: in vivo, mouse; conditions: 10 mg/kg 1 day after cisplatin
Method: In Tables 13 to 15, the experimental results are expressed in mean±standard error. The RT-PCR results were corrected with the amount of β-Actin as an endogenous control gene. With reference to statistically significant difference, an unpaired test between two groups (Student's t-test) was conducted for comparison between two groups, and one-way analysis of variance was conducted and then a Dunnett test was conducted for comparison among multiple groups. Further, in the histopathological study, a Mann-Whitney U test was conducted, and in all cases, a significance level of 5% or less (P<0.05) was regarded as significant difference.
10 mg/kg of SMTP-7 was administered 1 day after administration of cisplatin, and 3 days later, the kidney was isolated by the same method as in the evaluation of real time RT-PCR, and the histopathological study was conducted.
Formalin-fixed kidney was permeated with paraffin using an automatic embedding device to produce a paraffin block. The paraffin block was sliced into 3 μm sections with a microtome, and placed on a slide glass. Then, the sections were stretched with a paraffin stretcher at 52° C., and sufficiently dried overnight in a paraffin melter at 37° C. After deparaffinization and washing with water, the sections were stained with a Mayer's hematoxylin staining solution for 1 minute and washed with running water for 15 minutes. Thereafter, the sections were stained with an eosin staining solution for 45 seconds, and dehydrated with 80% to 100% ethanol, followed by clearing with xylene and sealing with marinol. Each specimen was examined microscopically at a magnification of 50 using an optical microscope. The degree of damage was examined microscopically at a magnification of 100 and 5 fields of view (1 field=2 mm, 5 fields=10 mm) and scored according to the following criteria. • Score 0: No significant change • Score 1: damage range 1 mm or less • Score 2: damage range 1 to 2 mm • Score 3: damage range 2 to 5 mm • Score 4: damage range 5 mm or more

[3] = points 0 (no lesion) to 4 (severe, 50% or more), mean±SE, 8 mice
[4] = Score 1: damage range 1 mm or less
[5] = score 0 (no significant change) to 4 (damage range 5 mm or more), N 7

Compound: CC(C)=CCC/C(C)=C/CC[C@@]1(C)Oc2c(c(O)cc3c2CN(CCC[C@@H](C(=O)O)N2Cc4c(cc(O)c5c4O[C@](C)(CC/C=C(\C)CCC=C(C)C)[C@@H](O)C5)C2=O)C3=O)C[C@@H]1O [SMTP-7]
- Histopathological changes (lesion changes), result in words ([1]; compared to control group): lesion changes other than the lesion change in tubular casts in the renal cortex were significantly improved
- Tubular cast score, Cortex [1, 3]: 0.9 ± 0.1
- Tubular cast score, Inner zone of outer medulla [1, 3]: 1.0 ± 0.2
- Tubular cast score, Outer zone of outer medulla [1, 3]: 0.9 ± 0.1
- Tubular dilatation score, Cortex [1, 3]: 2.0 ± 0.3
- Tubular dilatation score, Inner zone of outer medulla [1, 3]: 1.0 ± 0.2
- Tubular dilatation score, Outer zone of outer medulla [1, 3]: 1.4 ± 0.4
- Tubular necrosis score, Cortex [1, 3]: 0.4 ± 0.2
- Tubular necrosis score, Inner zone of outer medulla [1, 3]: 0.5 ± 0.2
- Tubular necrosis score, Outer zone of outer medulla [1, 3]: 0.4 ± 0.2
- Degeneration Necrosis, animals with Score 0 ([2]; Score 0: No significant change): 2/7
- Regeneraed tubules, animals with Score 0 ([2]; Score 0: No significant change): 7/7
- Tublar dilatatuon (Hyoline casts), animals with Score 0 ([2]; Score 0: No significant change): 6/7
- Degeneration Necrosis, animals with Score 1 [2, 4]: 2/7
- Tublar dilatatuon (Hyoline casts), animals with Score 1 [2, 4]: 1/7
- Degeneration Necrosis, animals with Score 2 ([2]; Score 2: damage range 1 to 2 mm): 1/7
- Degeneration Necrosis, animals with Score 3 ([2]; Score 3: damage range 2 to 5 mm): 1/7
- Degeneration Necrosis, animals with Score 4 ([2]; Score 4: damage range 5 mm or more): 1/7
- Histopathological changes in the proximal tubules, result in words ([2]; compared to Control group): the level was lower than that in the Control group and no significant difference was recognized
- Degeneration Necrosis, Mean score [2, 5]: 1.6
- Regeneraed tubules, Mean score [2, 5]: 0.0
- Tublar dilatatuon (Hyoline casts), Mean score [2, 5]: 0.1
